Reference: PubChem BioAssay AID1996
Values after ≈ are worked out from the molar mass of the structure shown.

Conditions: buffer; pH 7.4; 200.0 µM

SMILES	solubility kinetic
CCO/C=C1/C(=O)N(c2ccc(OC)cc2)C(=O)c2ccccc21	> 48.5 µg/mL
Cc1ccccc1CN(C)C(C)C(=O)Nc1ccccc1F (stereo not given)	8.1 µg/mL (≈ 27 µM)
S=C(Nc1cccnc1)N1CCCCC1	> 33.2 µg/mL
CC(C)(C)c1ccc(-c2nc(C#N)c(NCCCn3ccnc3)o2)cc1	1.2 µg/mL (≈ 3.43 µM)
NC(=O)Nc1ccc(Cl)cc1	> 25.6 µg/mL
Cc1cc(C)cc(NC(=O)CCN2CCCC2)c1	35.3 µg/mL (≈ 143 µM)
Cc1cccnc1NC(=O)CCNC(=O)c1ccccc1Cl	> 47.7 µg/mL
Clc1cccc(OCCCn2ccnc2)c1	> 35.5 µg/mL
CCc1ccc2nc(NC(=O)CN3C(=O)NC4(CCCC4)C3=O)sc2c1	2.6 µg/mL (≈ 6.98 µM)
COc1ccc(CCNC(=O)COC(=O)/C=C/c2cccc(F)c2)cc1	5.4 µg/mL (≈ 15.1 µM)
O=C(NCC1CC1(Cl)Cl)Nc1ccc(Cl)c(Cl)c1 (stereo not given)	9.1 µg/mL (≈ 27.7 µM)
O=C(O)C(=O)O.c1ccc(COc2cccc(CN3CCCCC3)c2)cc1	46.2 µg/mL
CN(CC(=O)Nc1cccc(F)c1)C(=O)C1=COCCO1	> 44.1 µg/mL
CC(=O)c1ccccc1OCC(O)Cn1ccnc1 (stereo not given)	38.2 µg/mL (≈ 147 µM)
CC(=O)N(Cc1ccccc1)c1ccccc1C(=O)O	> 40.4 µg/mL
O=C(CN1C(=O)c2ccccc2S1(=O)=O)NCCc1ccc(F)cc1	> 54.4 µg/mL
C=CCNC(=O)C1CCC(=O)N1S(=O)(=O)c1ccc(C)cc1 (stereo not given)	> 48.4 µg/mL
CC1(C)CC(CCN)(Cc2ccccc2Cl)CCO1 (stereo not given)	37.7 µg/mL (≈ 134 µM)
CCN(CC)c1cc(C)c(C#N)c2nc3ccccc3n12	2 µg/mL (≈ 7.18 µM)
Cc1cc(C)cc(NS(=O)(=O)Cc2ccccc2)c1	39.5 µg/mL (≈ 143 µM)
O=C(COC(=O)c1cccc(S(=O)(=O)NCc2ccccc2)c1)NC1CC1	15.2 µg/mL (≈ 39.1 µM)
Cc1cn(C2CC(OC(=O)C(C)C)C(CO)O2)c(=O)[nH]c1=O (stereo not given)	> 46.8 µg/mL
COc1ccccc1NC(=S)NC(C)C(c1cccs1)N1CCOCC1 (stereo not given)	> 58.7 µg/mL
C=C(C)C(=O)Oc1ccc(N2C(=O)[C@@H]3C4C=CC(C4)[C@@H]3C2=O)cc1	10.1 µg/mL (≈ 31.2 µM)

SMILES	solubility kinetic
CC(CNC(=O)c1ccco1)NC(=O)c1ccco1 (stereo not given)	38.8 µg/mL (≈ 148 µM)
Cc1cccc(C)c1NC(=O)NC1(C(=O)N2CCCCC2)CCCCC1	45.6 µg/mL (≈ 128 µM)
Nc1nc(SCC(=O)Nc2cccnc2Cl)n[nH]1	> 42.7 µg/mL
O=C(O)c1ccc(N=C2NC(=O)C(CO)(CO)S2)cc1	> 44.4 µg/mL
FC(F)(F)c1cccc(NC(=S)N2CCCCCC2)c1	22.3 µg/mL (≈ 73.8 µM)
Cc1ccc(CC2CC(=O)N(c3ccc(C)cc3)C2=O)cc1 (stereo not given)	7.8 µg/mL (≈ 26.6 µM)
COc1ccccc1-c1noc(CCC(=O)NC2CCCC2)n1	> 47.3 µg/mL
O=C(O)c1ccccc1-c1ccccc1C(=O)Nc1nc2ccccc2s1	> 56.2 µg/mL
COc1ccc(NS(=O)(=O)c2cccc(NC(=O)COc3ccccc3[N+](=O)[O-])c2)cc1	2.9 µg/mL (≈ 6.34 µM)
N=C1C(c2nc3ccccc3s2)=C(O)CN1C1CCC(O)CC1 (stereo not given)	5.1 µg/mL (≈ 15.5 µM)
COC(=O)c1cc(S(=O)(=O)N2CCCCC2)c[nH]1	> 40.8 µg/mL
N/C(=N\O)c1cn(Cc2ccccc2Cl)c2ccccc12	39.4 µg/mL (≈ 131 µM)
Fc1cccc(CNC2CCN(CCc3ccccc3)CC2)c1	33.7 µg/mL (≈ 108 µM)
c1ccc(Nc2cccc3ccccc23)cc1	1.5 µg/mL (≈ 6.84 µM)
CC(OC(=O)COc1ccc(C#N)cc1)C(=O)c1ccccc1 (stereo not given)	> 46.4 µg/mL
CCOC(=O)C1=C(CC)Nc2ccccc2N/C1=N\S(=O)(=O)c1cccc(C(C)=O)c1	> 66.2 µg/mL
O=C(COC(=O)CCC(=O)c1ccc(Cl)cc1)NCc1ccc(F)cc1	6.4 µg/mL (≈ 16.9 µM)
Cc1ccc(C)c(C(=O)c2ccccc2NC(=O)c2ccccn2)c1	< 0.4 µg/mL
CN1CCN(/N=C/c2ccc(N(C)c3ccccc3)cc2)CC1	> 46.3 µg/mL
COc1ccccc1N1Cc2ccc(OC)c(OC)c2C1=O	> 44.9 µg/mL
CC(C)CCN1CCC(N)=NC1=O	26.8 µg/mL (≈ 146 µM)
COc1ccc(OCCn2cnc3ccccc32)cc1	> 40.2 µg/mL
O=C(Nc1nc2ccccc2s1)c1ccc(F)cc1	0.6 µg/mL (≈ 2.2 µM)
O=C1CSC(c2cccnc2)N1c1ccc(Cl)cc1 (stereo not given)	> 43.6 µg/mL

SMILES	solubility kinetic
C=Cn1ccnc1P(O)(=S)c1nc(C)c(CCOC(C)=O)s1 (stereo not given)	43.1 µg/mL (≈ 121 µM)
COc1ccccc1NC(=O)NCCN1CCNC1=O	39.7 µg/mL (≈ 143 µM)
CSc1cccc(NC(=O)C2CC(=O)N(Cc3ccccc3)C2)c1 (stereo not given)	> 51.1 µg/mL
Cc1ccc(-c2ccc(CCC(=O)O)n2-c2cccc(C(=O)O)c2)cc1	50.4 µg/mL (≈ 144 µM)
CC(C)(C)NC(=O)Cn1c(SCC(=O)NC2CCCC2)nc2ccccc21	52.9 µg/mL (≈ 136 µM)
COc1cc(/C=C\C(=O)O)cc(S(=O)(=O)N2CCCCCC2)c1OC	52.8 µg/mL (≈ 143 µM)
Cc1ccc(C(=O)NCCCNC(=O)COc2ccc(C)c(C)c2)cn1	49.1 µg/mL (≈ 138 µM)
COc1ccc(NC(=O)CCc2ccc(OC)c(OC)c2)cn1	> 47.5 µg/mL
O=C(NC(=O)c1cnccc1C(F)(F)F)Nc1ccccc1	18.3 µg/mL (≈ 59.2 µM)
Cc1cccc(NC(=O)C2Cc3ccccc3O/C2=N\O)c1 (stereo not given)	1.2 µg/mL (≈ 4.05 µM)
O=C(NC1CCSc2ccccc21)c1c(F)cccc1Cl (stereo not given)	7.2 µg/mL (≈ 22.4 µM)
Cc1ccc(OCCn2cnc3c2c(=O)n(C)c(=O)n3C)cc1	6.3 µg/mL (≈ 20 µM)
O=C1CC(c2ccccc2Cl)CC(O)=C1C=NCCCO (stereo not given)	44.3 µg/mL (≈ 144 µM)
CCOc1ccc(NC(=O)/C(C#N)=C/c2cn(CC(=O)O)c3ccccc23)cc1	> 58.4 µg/mL
COc1ccc(NC(=O)c2ccc(C)cc2)c[n+]1[O-]	> 38.7 µg/mL
O=c1oc(-c2ccccc2Br)nc2ccccc12	5.2 µg/mL (≈ 17.2 µM)
O=C(O)c1cccc(N(CCO)CCO)c1	> 33.8 µg/mL
COc1cc(CC(=O)OCC(=O)NC(C)c2ccccc2)cc(OC)c1OC (stereo not given)	> 58.1 µg/mL
CN(C)c1ccc(NC(=O)c2ccc(N3CCOCC3)nc2)cc1	20.4 µg/mL (≈ 62.5 µM)
CCCCc1nc2cc(C(=O)NCc3cn(C)nc3C)ccc2o1	> 49 µg/mL
CC1c2ccsc2CCN1S(=O)(=O)c1cccs1 (stereo not given)	23.5 µg/mL (≈ 78.5 µM)
O=C(CSc1nc2ccc([N+](=O)[O-])cc2s1)NCC1CCCO1 (stereo not given)	50.6 µg/mL (≈ 143 µM)
COC(=O)C(Cc1ccc(O)cc1)NC(=O)NC12CC3CC(CC(C3)C1)C2 (stereo not given)	27.5 µg/mL (≈ 73.8 µM)
CCOC(=O)C1CCN(C(=O)CC2(CC(=O)O)CCCC2)CC1	45.5 µg/mL (≈ 140 µM)

SMILES	solubility kinetic
CCc1ccc(OCC(=O)NC(C)C)cc1	30.9 µg/mL (≈ 140 µM)
O=S(=O)(Nc1nccs1)c1ccc(F)cc1	> 38.7 µg/mL
O=C(Cc1c(Cl)cccc1Cl)OCC(=O)N1CCOCC1	> 49.8 µg/mL
CCC(=O)Nc1ccc2oc(-c3cccnc3)nc2c1	38.4 µg/mL (≈ 144 µM)
O=S(=O)(Nc1ccc(Nc2ccccc2)cc1)c1ccc(F)cc1	3.5 µg/mL (≈ 10.2 µM)
N/C(=N\OC(=O)Cc1ccc(-c2ccccc2)cc1)c1ccncc1	0.7 µg/mL (≈ 2.11 µM)
CNC(=O)c1cc(S(=O)(=O)NCc2ccncc2)ccc1OC	> 50.3 µg/mL
Cc1ccccc1OC(C)C(=O)Nc1ccc2c(c1)OCCO2 (stereo not given)	40.8 µg/mL (≈ 130 µM)
CCOc1ccc(C(=O)OCC(=O)N2CCCC2)cc1	> 41.6 µg/mL
COc1ccccc1CNC(=O)c1sccc1C	26.6 µg/mL (≈ 102 µM)
Cc1cnc(C(=O)NCC(c2ccccc2)c2ccccc2)cn1	0.8 µg/mL (≈ 2.52 µM)
CC1CCCN(CC(=O)Nc2ccc(S(=O)(=O)N3CCCC3)cc2)C1 (stereo not given)	> 54.8 µg/mL
O=C(/C=C/c1cccc(F)c1)OCC(=O)c1ccc[nH]1	7.5 µg/mL (≈ 27.4 µM)
O=C(Nc1ccc(Cl)cc1N1CCOCC1)C1CCCO1 (stereo not given)	44.7 µg/mL (≈ 144 µM)
COC(=O)Nc1ccc(S(=O)(=O)Nc2cnc3ccccc3n2)cc1	> 53.8 µg/mL
C[C@H](NS(=O)(=O)c1ccccc1)C(=O)N1CCN(C(c2ccccc2)c2ccccc2)CC1	16.2 µg/mL (≈ 34.9 µM)
Nc1cc2nc3ccccc3nc2cc1N	5.1 µg/mL (≈ 24.3 µM)
Cc1csc(SCC(=O)NC(C)C2CC3CCC2C3)n1 (stereo not given)	> 46.6 µg/mL
Cc1cc2c(Nc3cccc(O)c3)ncnc2s1.Cl	41.7 µg/mL
COc1ccc(CCNC(=O)c2cc(=O)c3cc(C)ccc3o2)cc1	6.6 µg/mL (≈ 19.6 µM)
COC(=O)c1sc(NC(=O)c2c(F)cccc2F)c(C#N)c1C	7.2 µg/mL (≈ 21.4 µM)
Cn1c(SCC(=O)NC2CCCC2)nnc1-c1ccncc1	> 47.6 µg/mL
Cc1ccc(C(=O)N2c3ccccc3OCC2C)cc1 (stereo not given)	37 µg/mL (≈ 138 µM)
Cc1cc(C(=O)OCC(=O)Nc2c(Cl)cccc2Cl)c(C)o1	8.7 µg/mL (≈ 25.4 µM)

SMILES	solubility kinetic
O=C1c2ccccc2C(=O)N1CCCn1ccnc1	> 38.3 µg/mL
Br.COc1ccc(NC2=NCCCCC2)cc1	44.7 µg/mL
CCC(=O)N1CCc2cc(S(=O)(=O)N3CCCC3)ccc21	7.3 µg/mL (≈ 23.7 µM)
C/C(N)=C(/C#N)C(=O)COC(=O)C1CCN(S(=O)(=O)c2cccs2)CC1	10.9 µg/mL (≈ 27.4 µM)
O=C(O)c1ccccc1Nc1ccc(OC(F)F)cc1	> 41.9 µg/mL
COc1ccc(S(=O)(=O)NCCC(=O)OCC(=O)NC2CC2)cc1	> 53.5 µg/mL
O=C(CN1CCN(C(=O)c2ccco2)CC1)Nc1ccccc1	> 47 µg/mL
CCCCn1c(C)c(C(=O)OCC)c2c(CN3CCCC3)c(O)ccc21	53.1 µg/mL (≈ 148 µM)
COc1cc(OC)nc(Oc2cc(C=O)ccc2OC)n1	> 43.5 µg/mL
O=C(c1ccc(Cl)cc1[N+](=O)[O-])N1CCOCC1	40.2 µg/mL (≈ 149 µM)
Cc1ccc2c(CN3CCOCC3)cc(=O)oc2c1C	> 41 µg/mL
Cc1cccc(Nc2ccncc2S(=O)(=O)NC(=O)NC(C)C)c1	> 52.3 µg/mL
C=CC[C@H]1CC(C)=C[C@H](CC=C)[NH2+]1.[Cl-]	> 32.1 µg/mL
O=C(CNC(=O)c1ccccc1F)N/N=C/c1cccs1	> 45.8 µg/mL
FC(F)(F)c1ccccc1N1CC1c1ccncc1 (stereo not given)	31 µg/mL (≈ 117 µM)
O=C(NCC(=O)N1CCCC1)c1ccc(Br)o1	> 45.2 µg/mL
CCCc1c(C)nc(-c2ccc(C)cc2)nc1OC(=O)N(C)C	27.3 µg/mL (≈ 87.1 µM)
CCOc1ccc(NC(=O)NCCCCc2ccccc2)cc1	0.4 µg/mL (≈ 1.28 µM)
COc1cccc(C(=O)Nc2ccc(C(=O)c3ccccc3)cc2)c1	7.4 µg/mL (≈ 22.3 µM)
COc1cccc(CN(C)C(=S)Nc2cccc(C)c2)c1	40.4 µg/mL (≈ 134 µM)
CN(C)C(CNC(=O)c1c(F)cccc1Cl)c1ccco1 (stereo not given)	> 46.6 µg/mL
O=C(CNC(=O)c1ccccc1F)N/N=C/c1cccnc1	> 45 µg/mL
CC1(C)C(c2ccccc2)=NC(c2ccc(Br)cc2)N1O (stereo not given)	3.7 µg/mL (≈ 10.7 µM)
COc1ccc(/C=C/C(=O)NC2CCS(=O)(=O)C2)cc1 (stereo not given)	> 44.3 µg/mL
